Data published in ChEMBL document CHEMBL1153888, “Targeted intracellular protein degradation induced by a small molecule: En route to chemical proteomics” (Bioorg Med Chem Lett, 2008).
pIC50: −log10 of the molar value. Active and inactive are the calls of the source. The rule behind the calls is not given here.

How the values were obtained:
[1] = target: E3 ubiquitin-protein ligase Mdm2 (Homo sapiens, UniProt Q00987); experiment: Binding affinity to MDM2
[2] = tested on: HeLa; experiment: Induction of intracellular protein degradation in human HeLa cells expressing androgen receptor assessed as decrease in total AR protein levels at 10 uM after 7 hrs by Western blot; format: functional, cell-based
[3] = tested on: HeLa; experiment: Inhibition of intracellular protein degradation in human HeLa cells expressing androgen receptor assessed as effect on total AR protein levels at 10 uM after 7 hrs by Western blot in presence of epoxomicin; format: functional, cell-based

E3 ubiquitin-protein ligase Mdm2, sequence (Q00987 whole entry): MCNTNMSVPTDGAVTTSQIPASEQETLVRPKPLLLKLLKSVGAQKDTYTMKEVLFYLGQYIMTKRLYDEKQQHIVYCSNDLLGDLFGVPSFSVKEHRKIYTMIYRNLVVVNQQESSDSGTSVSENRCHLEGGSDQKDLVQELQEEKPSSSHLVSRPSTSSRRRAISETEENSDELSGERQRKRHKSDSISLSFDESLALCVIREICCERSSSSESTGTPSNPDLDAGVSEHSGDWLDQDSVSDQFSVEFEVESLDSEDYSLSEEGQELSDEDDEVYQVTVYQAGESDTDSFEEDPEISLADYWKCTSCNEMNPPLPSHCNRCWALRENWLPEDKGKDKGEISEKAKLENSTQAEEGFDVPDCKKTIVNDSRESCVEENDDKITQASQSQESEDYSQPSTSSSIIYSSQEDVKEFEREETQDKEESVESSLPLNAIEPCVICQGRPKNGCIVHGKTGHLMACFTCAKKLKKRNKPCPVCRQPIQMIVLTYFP

| pIC50 [1] | Structure (SMILES) | Activity [2] | Activity [3] |
| --- | --- | --- | --- |
| 7.05 | COc1ccc(C2=NC(c3ccc(Cl)cc3)C(c3ccc(Cl)cc3)N2)c(OC(C)C)c1 (stereo not drawn) |  |  |
|  | COc1ccc(C2=N[C@H](c3ccc(Cl)cc3)[C@H](c3ccc(Cl)cc3)N2C(=O)N2CCN(CC(=O)NCCOCCOCCOCC(=O)Nc3ccc(OC[C@](C)(O)C(=O)Nc4ccc([N+](=O)[O-])c(C(F)(F)F)c4)cc3)C(=O)C2)c(OC(C)C)c1 | Active | Active |
